Assays:
[1] = target: T1, Ephrin type-B receptor 2 (Homo sapiens, UniProt P29323); assay: Equilibrium binding constant for EPH receptor B2
T1 sequence (P29323 whole entry): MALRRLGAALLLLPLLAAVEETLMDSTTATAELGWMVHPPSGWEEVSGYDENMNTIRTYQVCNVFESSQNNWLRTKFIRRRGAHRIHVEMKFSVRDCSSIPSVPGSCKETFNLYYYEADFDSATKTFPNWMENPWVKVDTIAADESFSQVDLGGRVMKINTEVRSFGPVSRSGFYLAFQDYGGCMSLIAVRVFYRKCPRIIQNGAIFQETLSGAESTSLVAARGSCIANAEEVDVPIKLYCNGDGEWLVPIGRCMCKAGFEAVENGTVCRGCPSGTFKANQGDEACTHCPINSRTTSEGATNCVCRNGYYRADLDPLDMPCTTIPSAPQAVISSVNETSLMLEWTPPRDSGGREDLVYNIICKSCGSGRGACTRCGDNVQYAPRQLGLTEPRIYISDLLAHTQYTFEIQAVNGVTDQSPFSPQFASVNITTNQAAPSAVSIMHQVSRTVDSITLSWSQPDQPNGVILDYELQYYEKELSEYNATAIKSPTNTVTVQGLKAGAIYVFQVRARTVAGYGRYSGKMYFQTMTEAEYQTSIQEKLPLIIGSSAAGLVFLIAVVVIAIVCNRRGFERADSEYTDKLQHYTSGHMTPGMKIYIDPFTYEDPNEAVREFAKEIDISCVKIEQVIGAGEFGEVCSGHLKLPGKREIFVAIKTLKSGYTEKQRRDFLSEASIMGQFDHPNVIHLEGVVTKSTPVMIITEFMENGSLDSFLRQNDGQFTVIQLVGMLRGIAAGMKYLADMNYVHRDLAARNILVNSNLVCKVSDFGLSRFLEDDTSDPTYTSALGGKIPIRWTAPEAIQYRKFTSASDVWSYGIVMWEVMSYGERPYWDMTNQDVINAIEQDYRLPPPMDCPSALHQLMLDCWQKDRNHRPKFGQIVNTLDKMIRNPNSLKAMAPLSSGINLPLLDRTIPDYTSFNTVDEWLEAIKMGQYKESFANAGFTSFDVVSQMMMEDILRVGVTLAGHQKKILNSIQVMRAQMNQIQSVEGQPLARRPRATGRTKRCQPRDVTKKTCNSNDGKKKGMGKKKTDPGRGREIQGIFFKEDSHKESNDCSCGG

[2] = target: T1, Ephrin type-B receptor 2; assay: Inhibition of EPH receptor B2 using ELISA

Row | Compound | Kd [1] | IC50 [2]
1 | COc1cc2ncnc(Nc3cccc(Br)c3)c2cc1OC | 8.1 µM | 10.2 µM
2 | COc1cc2ncnc(Nc3ccc(Oc4ccccc4)cc3)c2cc1OC | 58.4 µM | 86 µM
3 | CC(C)(C)n1nc(-c2ccc(Cl)cc2)c2c(N)ncnc21 | 36.5 µM | 52 µM
4 | CNc1ccc2c(Nc3cccc(Br)c3)ncnc2c1 | 21.9 µM | 34 µM
5 | O=C1C=C(Nc2ccc(O)cc2)C(=O)c2ccccc21 |  | 38 µM
6 | CN(C)c1ccc(/C=C2/C(=O)Nc3ccccc32)cc1 | 19.5 µM | 27.5 µM
7 | COc1cc2ncnc(Nc3cccc(O)c3)c2cc1OC | 2.4 µM | 1.2 µM

Reference: ChEMBL document CHEMBL1144354, “Frontal affinity chromatography with MS detection of EphB2 tyrosine kinase receptor. 2. Identification of small-molecule inhibitors via coupling with virtual screening” (J Med Chem, 2005)
